Data published in patent US20260345654A1, “2,8-DIHYDROXYQUINOLINE GLUCURONIDE DERIVATIVES WITH ENHANCED PROPERTIES FOR USE AS ANTICANCER, ANTIVIRAL, ANTIMICROBIAL, AND OTHER THERAPEUTIC APPLICATIONS” (priority 2023, published 2026).
Entries after “also recorded” stand apart in the source; their conditions may differ. Read-outs that look alike come from different tables or passages of the source.

How the values were obtained:
DU-145 cells = test: In vitro anti-proliferation (CellTiter-Glo, 72 hr), DU-145; format: cell-based, human
Procedure: (§1) Commercially available 8HQ and freshly synthesized G2-8HQ were prepared for in vitro anti-proliferative studies against the following cell lines with and without the presence of 10 μM Cu(+2): (1) A549: […]; (2) BT-549: epithelial cells from ductal tumor; (3) DU-145: human prostate cancer; (4) PANC-1: pancreatic cancer; (5) SU.86.86: a new adoptive pancreatic cell for immunotherapy studies; (6) RL: non-Hodgkin's lymphoma; (7) LnCAP, Prostate cancer cell line; (8) A431, a squamous cell carcinoma line; and (9) UACC-62 a malignant melanoma cell line.
(§2) With regard to the study protocol used, the objective was to conduct a study of the cytotoxicity of W1469 against several cancer cell lines. In the study protocol, preparations for the A549 (Lung) cell line screen are given as an example. The following materials were used: (1) FBS (2) RPMI-1640 medium supplemented with 10% FBS:’ and (3) A549 Cells. The four samples tested are referred to as Items 1-4 below and were placed at 4 °C upon arrival. These four samples were as follows: • Item 1: Tube A (W1469) (500 uM when FBS added) • Item 2: Tube B (W1469g) (1000 uM when FBS added) • Item 3: Tube C (W1469) • Item 4: Tube D (W1469g)
(§3) Add 50 μL of above 2× stocks to appropriate wells to expose appropriate cells to the final dilutions of samples. Add 50 μL media to media and cell control wells and 50 μL media mix to vehicle control wells. Cells are exposed for 72 hr. Following a 72 hr exposure to Sample, perform a CTG assay on all remaining plates.
(§4) At the end of the 72 hr exposure period, remove plates for CellTiter-Glo assay from 37 °C, 5% CO2 incubator and place on the bench at room temperature for 30 mins. Add 100 μL CellTiter-Glo reagent, mix for 2 mins, followed by a further 10 min incubation at room temperature. Record luminescence. Tables showing the resulting plate layouts are included below/

BT-549 cells = test: In vitro anti-proliferation (CellTiter-Glo, 72 hr), BT-549; format: cell-based
Procedure: as §1, §2, §3, §4

A431 cells = test: In vitro anti-proliferation (CellTiter-Glo, 72 hr), A431; format: cell-based
Procedure: as §1, §2, §3, §4
The other cancer cell lines tested gave similar results. […] Three additional cell lines were also studied and described more completely in Example 9 provided herein. These cell lines included cytotoxicity testing of WT1469 (G2-8HQ) against LnCAP a prostate cancer, A431 a squamous carcinoma cell line and UACC-62 a malignant melanoma cell line. All were complexed in situ with copper immediately prior to testing. The results from these additional cell lines and incorporated in Table 2 and Example 9.

basal cell carcinoma = test: Single patient clinical study, topical W1469, basal cell carcinoma; format: in vivo, human
Excerpt: • Indication: Basil Cell Carcinoma • Rationale: Basil Cell Carcinoma is the most common form of skin cancer with 3.6 Million cases diagnosed each year and rising. It is estimated that 80% of all newly diagnosed skin cancers are BCC. Although rarely fatal, it can be painful and disfiguring and, in some cases, become dangerously invasive. The most common forms of treatment include surgery, radiation treatment, immunotherapy, systemic and topical chemotherapy, and other variations including laser therapy. The currently approved topical treatments for BCC are usually only recommended for more superficial tumors and more extensive monitoring is required because they are generally not effective in destroying cancer cell deeper below the surface. A more complete description of treatment options and their relative effectiveness has been described by the American Cancer Society. […] And if necessary, on a continuing ongoing basis.
The examined treatment approach studied here falls in the category of a topical chemotherapeutic. W1469 is a novel small molecule anti-cancer drug candidate which contains a tumor targeting functional group and has been shown effective against a variety of cancers in vitro. (most recently including squamous cell carcinoma)
Topical gel containing 0.5 mg/ml W1469 in proprietary aqueous alcohol gel, applied initially once daily using a suitable topical applicator.
In general, the Treatment/Patient protocol used for the patient testing was as follows: • 1. Photograph the application site prior to starting the protocol. Note any changes in lesion size, color, etc. of treatment area. • 2. Remove a loaded syringe from the freezer, dry ice or refrigerator and allow to gradually warm to room temperature. • 3. Photograph the syringe each time prior to application. Note the color of the gel contained in the syringe. • 4. Lightly clean the skin surface with alcohol wipe. • 5. […] Let the liquid from the gel absorb into the site without disturbing. Apply once a day at the same time. • 6. Re-cap the syringe and store in the refrigerator until completely used. • 7. Repeat 1-6 each daily during application period. It is noted in this protocol that photographing the syringe used with each application period accomplishes two things.
• 1. Toleration/toxicity • 2. Application methodology • 3. Any visual indications of efficacy • 4. Patient feedback Study Duration: Varied case by case. Generally, two weeks to two months
A person with extensive basil cell carcinoma lesions on both sides of the face, forehead and ear. Note: the clinical study involving Individual 1, due to limitations in available material, at the time was performed with very low concentrations of W1469 and the patient was instructed to use only on the nose area and under the area of the left cheek. The treatment was thus self-administered. A photo of the individual before treatment is included in FIG. 23. Patient condition was monitored and photographed regularly during the treatment period.
Self-administered, variable treatment protocol, drug concentrations and vehicle carrier. […] The lesion was tender to palpation especially to the center and the area around the lesion was with hyperpigmentation. […] No necrotic or hyperkeratotic areas were noted. […] Therapy was reintroduced on a three times-daily dosing schedule and with ethanol-based carrier molecule. […] The centralized portion of the lesion slowly healed over the next 5-day period. Continued healing of the centralized portion of the lesion during the 5-day period status post central necrotic tissue extrusion was shown. During this period the lesion began to flatten, the area became pain free, and localized tissue became less erythematic. A bloody clot in central area resolved and crater size decreased.

cancer cell lines = test: Anti-proliferative activity against cancer cell lines (overall statements); format: cell-based
Procedure: as §1, §2, §3, §4

PANC-1 cells = test: In vitro anti-proliferation (CellTiter-Glo, 72 hr), PANC-1; format: cell-based
Procedure: as §1, §2, §3, §4

[1] = 1 and 0.5 μM, presence of Cu^+2 ions, wide standard deviation
[2] = +Cu (10 μM), 72 hr, G2-8HQ values based on MW of apo form (337), read-out: IC50
[3] = complexed with Cu, multiplied by 337/776=0.43, column 3 duplicate of column 2, listed as W1469, read-out: IC50 (adjusted to MW of copper complex)
[4] = Individual 1, three week period, topical
[5] = Individual 2, after first week of treatment

## O=C(O)[C@H]1O[C@@H](Oc2ccc3cccc(O)c3n2)[C@H](O)[C@@H](O)[C@@H]1O [G2-8HQ, 8-Hydroxy-2-quinolinyl beta-D-glucopyranosiduronic acid]
DU-145 cells; [1]
  cytotoxicity: in some percentage of the screens all the cancer cells were killed at these concentrations
DU-145 cells; [2]
  IC50: 8.7 µM
DU-145 cells; Homo sapiens, DU-145, 72 h, +Cu (10 μM), 72 hr, G2-8HQ values based on MW of apo form (337), read-out: IC50
  IC50: 7.3 µM
DU-145 cells; Homo sapiens, DU-145, 72 h, −Cu, 72 hr, read-out: IC50
  IC50: > 500 µM
DU-145 cells; Homo sapiens, DU-145, complexed with Cu, multiplied by 337/776=0.43, column 3 duplicate of column 2, read-out: IC50 (adjusted to MW of copper complex)
  IC50: 3.1 µM
DU-145 cells; [3]
  IC50: 3.7 µM
BT-549 cells; [1]
  cytotoxicity: in some percentage of the screens all the cancer cells were killed at these concentrations
BT-549 cells; [2]
  IC50: 8.6 µM
BT-549 cells; Homo sapiens, BT-549, 72 h, +Cu (10 μM), 72 hr, G2-8HQ values based on MW of apo form (337), read-out: IC50
  IC50: 5.6 µM
BT-549 cells; Homo sapiens, BT-549, 72 h, −Cu, 72 hr, read-out: IC50
  IC50: > 500 µM
BT-549 cells; Homo sapiens, BT-549, complexed with Cu, multiplied by 337/776=0.43, column 3 duplicate of column 2, read-out: IC50 (adjusted to MW of copper complex)
  IC50: 2.4 µM
BT-549 cells; [3]
  IC50: 3.7 µM
A431 cells; +Cu, complexed in situ with copper immediately prior to testing, not based on apo MW, read-out: IC50
  IC50: 85 µM
A431 cells; Homo sapiens, A-431, +Cu, complexed in situ with copper immediately prior to testing, not based on apo MW, read-out: IC50
  IC50: 64 µM
A431 cells; Homo sapiens, A-431, complexed with Cu in situ, * differences with or without excipient, suboptimal complexing, read-out: IC50 (adjusted to MW of copper complex)
  IC50: 63.2 µM
A431 cells; complexed with Cu in situ, * differences with or without excipient, suboptimal complexing, listed as W1469, read-out: IC50 (adjusted to MW of copper complex)
  IC50: 83.4 µM
Basal cell carcinoma; [4]
  patient's condition: significant amelioration of the patient's condition
  scarring or other disfigurement: did not result in scarring or other disfigurement
Basal cell carcinoma; Individual 2, after 7 days of treatment (FIG. 26)
  patient's condition: significant amelioration of the patient's condition
Basal cell carcinoma; [5]
  hyperpigmentation: hyperpigmentation is markedly reduced
  lesion response: marked improvement in the lesion was obtained with almost complete resolution
  pain: Area is pain free
Basal cell carcinoma; Individual 2, one month following the treatment
  recurrence: another lesion returned to the patient's right cheek
Basal cell carcinoma; Individual 2, second lesion
  lesion hyperkeratosis: marked reduction in lesion hyperkeratosis
Basal cell carcinoma; Individual 2, second lesion, after two days
  centralized necrotic core: the centralized necrotic core came out of the lesion
Basal cell carcinoma; Individual 2, second lesion, three times daily, ethanol-based carrier
  lesion size: lesion size markedly decreased
Cancer cell lines; absence of copper
  cytotoxicity: absence of cytotoxicity (no measurable IC50 in standard drug concentration ranges)
Cancer cell lines; all cell lines tested
  anticancer activity: powerful anticancer activity against all cell lines tested
Cancer cell lines; comparison Table 5
  Active w/o Cu (cancer): No
Cancer cell lines; without copper, six of the nine carcinoma cell lines
  IC50: > 500 µM
PANC-1 cells; [1]
  cytotoxicity: at least some of the screens reflected that all the cancer cells were killed at these concentrations; also recorded: in some % of the screens all the cancer cells were killed at these concentrations
PANC-1 cells; Homo sapiens, PANC-1, 72 h, −Cu, 72 hr
  IC50: > 500 µM
